From patent US8163771B2, “11 β-HSD1 modulators” (Exelixis, Inc., priority 2008, dated 2012)

Target: T1, recombinant human 11 β-HSD1 (Homo sapiens, UniProt P28845)
T1 construct: made in house; host or cells: E. coli
Test: 11 β-HSD1 SPA Assay (Scintillation Proximity Assay)
Type: biochemical
Procedure, shortened: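 E. coli-expressed human enzyme (30-100 nM) with tritiated cortisone 40 nM and NADPH 1 mM in HEPES buffer pH7.4, 2 hours at room temperature. Stopped with protein A SPA beads carrying anti-cortisol antibody and glycyrrhetinic acid; counted after overnight incubation. IC50 from percent inhibition between no-enzyme and no-compound signals.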

T1 sequence (P28845 whole entry): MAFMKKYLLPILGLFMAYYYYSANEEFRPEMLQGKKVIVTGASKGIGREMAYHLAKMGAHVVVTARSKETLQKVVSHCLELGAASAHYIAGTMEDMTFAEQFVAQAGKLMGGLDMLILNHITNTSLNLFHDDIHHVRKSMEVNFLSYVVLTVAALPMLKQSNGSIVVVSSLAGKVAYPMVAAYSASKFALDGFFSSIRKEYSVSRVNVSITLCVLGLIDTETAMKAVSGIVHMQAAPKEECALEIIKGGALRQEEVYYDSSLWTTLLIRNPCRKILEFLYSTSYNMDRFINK

CC(C)(Oc1cc(OCCN2CCOCC2)c(Cl)cc1Cl)C(=O)N[C@H]1C[C@H]2CC[C@@H](C1)N2c1ccc(C(=O)NCC(F)(F)F)cn1 [Example 407, 6-(3-endo-(2-(2,4-dichloro-5-(2-morpholinoethoxy)phenoxy)-2-methylpropanamido)-8-azabicyclo[3.2.1]octan-8-yl)-N-(2,2,2-trifluoroethyl)nicotinamide]
IC50: < 200 nM

CC(C)(Oc1ncc(Cl)cc1Cl)C(=O)N[C@H]1C[C@H]2CC[C@@H](C1)N2c1ccc(C(=O)NCC(F)F)cn1 [Example 408, 6-(3-endo-(2-(3,5-dichloropyridin-2-yloxy)-2-methylpropanamido)-8-azabicyclo[3.2.1]octan-8-yl)-N-(2,2-difluoroethyl)nicotinamide]
IC50: < 200 nM

CC(C)(Oc1ncc(Cl)cc1F)C(=O)N[C@H]1C[C@H]2CC[C@@H](C1)N2c1ccc(C(=O)NCC(F)F)cn1 [Example 409, 6-(3-endo-(2-(5-chloro-3-fluoropyridin-2-yloxy)-2-methylpropanamido)-8-azabicyclo[3.2.1]octan-8-yl)-N-(2,2-difluoroethyl)nicotinamide]
IC50: < 200 nM

C[C@H](NC(=O)c1ccc(N2C3CCC2CC(NC(=O)C(C)(C)Oc2ccc(Cl)cc2OC(F)(F)F)C3)nc1)C(F)(F)F (stereo partly drawn) [Example 410, 6-(3-endo-(2-(4-chloro-2-(trifluoromethoxy)phenoxy)-2-methylpropanamido)-8-azabicyclo[3.2.1]octan-8-yl)-N-((S)-1,1,1-trifluoropropan-2-yl)nicotinamide]
IC50: < 200 nM

C[C@@H](NC(=O)c1ccc(N2C3CCC2CC(NC(=O)C(C)(C)Oc2ccc(Cl)cc2C(F)F)C3)nc1)C(F)(F)F (stereo partly drawn) [Example 411, 6-(3-endo-(2-(4-chloro-2-(difluoromethyl)phenoxy)-2-methylpropanamido)-8-azabicyclo[3.2.1]octan-8-yl)-N-((R)-1,1,1-trifluoropropan-2-yl)nicotinamide]
IC50: < 200 nM

C[C@@H](NC(=O)c1ccc(N2C3CCC2CC(NC(=O)C(C)(C)Oc2ccc(Cl)cc2C(F)(F)F)C3)nc1)C(F)(F)F (stereo partly drawn) [Example 412, 6-(3-endo-(2-(4-chloro-2-(trifluoromethyl)phenoxy)-2-methylpropanamido)-8-azabicyclo[3.2.1]octan-8-yl)-N-((R)-1,1,1-trifluoropropan-2-yl)nicotinamide]
IC50: < 200 nM

CC(C)(Oc1cc(OCC(=O)O)c(Cl)cc1Cl)C(=O)N[C@H]1C[C@H]2CC[C@@H](C1)N2c1ccc(C(=O)NCC(F)(F)F)cn1 [Example 413, 2-(2,4-dichloro-5-(2-methyl-1-oxo-1-(8-(5-(2,2,2-trifluoroethylcarbamoyl)pyridin-2-yl)-8-azabicyclo[3.2.1]octan-3-endo-ylamino)propan-2-yloxy)phenoxy)acetic acid]
IC50: < 200 nM

CC(C)(Oc1cc(OC(C)(C)C(=O)N[C@H]2C[C@H]3CC[C@@H](C2)N3c2ccc(C(=O)NCC(F)(F)F)cn2)c(Cl)cc1Cl)C(=O)O [Example 414, 2-(2,4-dichloro-5-(2-methyl-1-oxo-1-(8-(5-(2,2,2-trifluoroethylcarbamoyl)pyridin-2-yl)-8-azabicyclo[3.2.1]octan-3-endo-ylamino)propan-2-yloxy)phenoxy)-2-methylpropanoic acid]
IC50: < 2000 nM

C[C@@H](NC(=O)c1ccc(N2C3CCC2CC(NC(=O)C(C)(C)Oc2ccc(Cl)cc2OC(F)(F)F)C3)nc1)C(F)(F)F (stereo partly drawn) [Example 415, 6-[3-endo-({2-[4-chloro-2-(trifluoromethoxy)phenoxy]-2-methylpropanoyl}amino)-8-azabicyclo[3.2.1]oct-8-yl]-N-[(2R)-1,1,1-trifluoropropan-2-yl]pyridine-3-carboxamide]
IC50: < 200 nM

C[C@H](NC(=O)c1ccc(N2C3CCC2CC(NC(=O)C(C)(C)Oc2ccc(Cl)cc2C(F)(F)F)C3)nc1)C(F)(F)F (stereo partly drawn) [Example 416, 6-[3-endo-({2-[4-chloro-2-(trifluoromethyl)phenoxy]-2-methylpropanoyl}amino)-8-azabicyclo[3.2.1]oct-8-yl]-N-[(2S)-1,1,1-trifluoropropan-2-yl]pyridine-3-carboxamide]
IC50: < 200 nM

C[C@H](NC(=O)c1ccc(N2C3CCC2CC(NC(=O)C(C)(C)Oc2ncc(Cl)cc2Cl)C3)nc1)C(F)(F)F (stereo partly drawn) [Example 417, 6-[3-endo-({2-[(3,5-dichloropyridin-2-yl)oxy]-2-methylpropanoyl}amino)-8-azabicyclo[3.2.1]oct-8-yl]-N-[(2S)-1,1,1-trifluoropropan-2-yl]pyridine-3-carboxamide]
IC50: < 200 nM

C[C@H](NC(=O)c1ccc(N2C3CCC2CC(NC(=O)C(C)(C)Oc2ccc(F)cc2C(F)F)C3)nc1)C(F)(F)F (stereo partly drawn) [Example 418, 6-[3-endo-({2-[2-(difluoromethyl)-4-fluorophenoxy]-2-methylpropanoyl}amino)-8-azabicyclo[3.2.1]oct-8-yl]-N-[(2S)-1,1,1-trifluoropropan-2-yl]pyridine-3-carboxamide]
IC50: < 200 nM

C[C@H](NC(=O)c1ccc(N2C3CCC2CC(NC(=O)C(C)(C)Oc2ncc(Cl)cc2F)C3)nc1)C(F)(F)F (stereo partly drawn) [Example 419, 6-[3-endo-({2-[(5-chloro-3-fluoropyridin-2-yl)oxy]-2-methylpropanoyl}amino)-8-azabicyclo[3.2.1]oct-8-yl]-N-[(2S)-1,1,1-trifluoropropan-2-yl]pyridine-3-carboxamide]
IC50: < 2000 nM

C[C@H](NC(=O)c1ccc(N2C3CCC2CC(NC(=O)C(C)(C)Oc2ccc(Cl)cc2)C3)nc1)C(F)(F)F (stereo partly drawn) [Example 420, 6-(3-endo-{[2-(4-chlorophenoxy)-2-methylpropanoyl]amino}-8-azabicyclo[3.2.1]oct-8-yl)-N-[(2S)-1,1,1-trifluoropropan-2-yl]pyridine-3-carboxamide]
IC50: < 2000 nM

CC(C)(Oc1ccc(Cl)cc1Cl)C(=O)NC1CC2CCC(C1)N2c1ccc(C(=O)NCC(O)C(F)(F)F)cn1 (stereo not drawn) [Example 421, 6-(3-endo-{[2-(2,4-dichlorophenoxy)-2-methylpropanoyl]amino}-8-azabicyclo[3.2.1]oct-8-yl)-N-(3,3,3-trifluoro-2-hydroxypropyl)pyridine-3-carboxamide]
IC50: < 200 nM

CC(C)(Oc1ccc(Cl)cc1S(C)(=O)=O)C(=O)N[C@H]1C[C@H]2CC[C@@H](C1)N2c1ccc(C(=O)NCC(F)F)cn1 [Example 422, 6-[3-endo-({2-[4-chloro-2-(methylsulfonyl)phenoxy]-2-methylpropanoyl}amino)-8-azabicyclo[3.2.1]oct-8-yl]-N-(2,2-difluoroethyl)pyridine-3-carboxamide]
IC50: < 200 nM

C[C@H](NC(=O)c1ccc(N2C3CCC2CC(NC(=O)C(C)(C)Oc2ccc(F)cc2C(F)(F)F)C3)nc1)C(F)(F)F (stereo partly drawn) [Example 423, 6-[3-endo-({2-[4-fluoro-2-(trifluoromethyl)phenoxy]-2-methylpropanoyl}amino)-8-azabicyclo[3.2.1]oct-8-yl]-N-[(2S)-1,1,1-trifluoropropan-2-yl]pyridine-3-carboxamide]
IC50: < 200 nM

C[C@H](NC(=O)c1ccc(N2C3CCC2CC(NC(=O)C(C)(C)Oc2ccc(Cl)cc2C(F)F)C3)nc1)C(F)(F)F (stereo partly drawn) [Example 424, 6-[3-endo-({2-[4-chloro-2-(difluoromethyl)phenoxy]-2-methylpropanoyl}amino)-8-azabicyclo[3.2.1]oct-8-yl]-N-[(2S)-1,1,1-trifluoropropan-2-yl]pyridine-3-carboxamide]
IC50: < 200 nM

C[C@H](NC(=O)c1ccc(N2C3CCC2CC(NC(=O)C(C)(C)Oc2cc(F)c(Cl)cc2Cl)C3)nc1)C(F)(F)F (stereo partly drawn) [Example 425, 6-(3-endo-{[2-(2,4-dichloro-5-fluorophenoxy)-2-methylpropanoyl]amino}-8-azabicyclo[3.2.1]oct-8-yl)-N-[(2S)-1,1,1-trifluoropropan-2-yl]pyridine-3-carboxamide]
IC50: < 200 nM

CC(C)(Oc1cc(OC(C)(C)C(=O)N[C@H]2C[C@H]3CC[C@@H](C2)N3c2ccc(C(=O)NCC(F)(F)F)cn2)c(Cl)cc1Cl)C(N)=O [Example 426, 6-{3-endo-[(2-{5-[(1-amino-2-methyl-1-oxopropan-2-yl)oxy]-2,4-dichlorophenoxy}-2-methylpropanoyl)amino]-8-azabicyclo[3.2.1]oct-8-yl}-N-(2,2,2-trifluoroethyl)pyridine-3-carboxamide]
IC50: < 200 nM

CC(C)(Oc1ccc(Cl)cc1OC(F)(F)F)C(=O)N[C@H]1C[C@H]2CC[C@@H](C1)N2c1ccc(C(=O)NC2(CO)CC2)cn1 [Example 427, 6-[3-endo-({2-[4-chloro-2-(trifluoromethoxy)phenoxy]-2-methylpropanoyl}amino)-8-azabicyclo[3.2.1]oct-8-yl]-N-[1-(hydroxymethyl)cyclopropyl] pyridine-3-carboxamide]
IC50: < 200 nM

CC(C)(Oc1cc(CO)c(Cl)cc1Cl)C(=O)NC1CC2CCC(C1)N2c1ccc(C(=O)NCC(F)F)cn1 (stereo not drawn) [Example 428, 6-[3-endo-({2-[2,4-dichloro-5-(hydroxymethyl)phenoxy]-2-methylpropanoyl}amino)-8-azabicyclo[3.2.1]oct-8-yl]-N-(2,2-difluoroethyl)pyridine-3-carboxamide]
IC50: < 200 nM

CC(C)(Oc1cc(C(C)(C)O)c(Cl)cc1Cl)C(=O)N[C@H]1C[C@H]2CC[C@@H](C1)N2c1ccc(C(=O)NCC(F)F)cn1 [Example 429, 6-[3-endo-({2-[2,4-dichloro-5-(2-hydroxypropan-2-yl)phenoxy]-2-methylpropanoyl}amino)-8-azabicyclo[3.2.1]oct-8-yl]-N-(2,2-difluoroethyl)pyridine-3-carboxamide]
IC50: < 200 nM

C[C@H](NC(=O)c1ccc(N2C3CCC2CC(NC(=O)C(C)(C)Oc2cc(F)c(F)cc2Cl)C3)nc1)C(F)(F)F (stereo partly drawn) [Example 430, 6-(3-endo-{[2-(2-chloro-4,5-difluorophenoxy)-2-methylpropanoyl]amino}-8-azabicyclo[3.2.1]oct-8-yl)-N-[(2S)-1,1,1-trifluoropropan-2-yl]pyridine-3-carboxamide]
IC50: < 200 nM

C[C@H](NC(=O)c1ccc(N2C3CCC2CC(NC(=O)C(C)(C)Oc2ccc(F)cc2F)C3)nc1)C(F)(F)F (stereo partly drawn) [Example 431, 6-(3-endo-{[2-(2,4-difluorophenoxy)-2-methylpropanoyl]amino}-8-azabicyclo[3.2.1]oct-8-yl)-N-[(2S)-1,1,1-trifluoropropan-2-yl]pyridine-3-carboxamide]
IC50: < 200 nM
